The values that follow come from patent US20220257603A1, “COMBINATION THERAPY FOR TREATING MTAP-DEFICIENT TUMORS” (Board of Regents, The University of Texas System, priority 2019, published 2022).

One data set relates to mouse CD8 T cells. The data set is described as follows: Cytokine production by activated mouse CD8 T cells. The data set is classed as cell-based. As to the method:
MTA was added into culture for 72 h.
MTA was added into culture for 72 h. […] Therefore, a triple combination therapy with pemetrexed +A2BR antagonists+anti-PD-L1 (or anti-PD1) can be ultra-effective for MTAP-deficient malignancies through five different mechanisms: (1) direct cytotoxicity (from pemetrexed); (2) decrease of MTA levels (from pemetrexed cytotoxicity) and thus alleviation of inhibition of IFN signaling and T cell function; (3) increases in levels of tumor PD-L1 expression (from pemetrexed); (4) T cell activation by mitigating MTA inhibition (A2BR antagonists); and (5) further T cell activation by inhibiting checkpoint molecule PD-L1 (anti-PD-L1 or anti-PD1).

In a further data set the test system is activated human T cells. The conditions noted are these: incubation with MTA; cited from earlier work.
The subject of data set [1] is MTAP-deficient vs. MTAP-wild type human bladder cancer cell lines. Nature of the data set: Apoptosis (sub-G1 population) after pemetrexed in human bladder cancer cell lines. The data set is classed as cell-based. The conditions noted are these: FIG. 2A. An excerpt:
(§1) Asterisk represents a patient that died of a car accident and thus was not evaluable.
(§2) Pemetrexed inhibited MTAP-deficient human tumor growth (FIG. 2C) but not MTAP-wild type tumor growth (FIG. 2D) in a xenograft mouse model.

The subject of data set [2] is MTAP knockdown human bladder cell lines. The data set is described as follows: Apoptosis (sub-G1 population) after MTAP knockdown in human bladder cancer cell lines. The data set is classed as cell-based. The conditions noted are these: FIG. 2B.
Source text: as §1, §2

Data set [3] has as its system MTAP-deficient human tumor. Nature of the data set: Tumor growth in xenograft mouse model, MTAP-deficient tumor. The data set is classed as in vivo. The following applies: FIG. 2C.
Source text: as §1, §2

The next data set deals with MTAP-wild type tumor. The data set is described as follows: Tumor growth in xenograft mouse model, MTAP-wild type tumor. The data set is classed as in vivo. The conditions noted are these: FIG. 2D.
Source text: as §1, §2

Data set [4] concerns MTAP-knockdown human tumors. Nature of the data set: Tumor growth in xenograft mouse model, MTAP-knockdown tumor. The data set is classed as in vivo. The following applies: FIG. 2E.
Source text: as §1, §2

Data set [5] concerns MTAP-deficient bladder cancer vs MTAP-wild type bladder cancer. The data set is described as follows: Response of bladder cancer patients to pemetrexed (RECIST). Type of data set: in vivo, human.
Source text: as §1, §2

In data set [6] the test system is PD-L1. Nature of the data set: PD-L1 expression in MTAP-deficient bladder cancer cell lines after pemetrexed. The following applies: FIG. 4A. The data set is classed as cell-based. An excerpt:
(§3) For example, pemetrexed induced PD-L1 in MTAP-deficient bladder cancer cell lines (FIG. 4A). […] Based on this, FIG. 6 provides a proposed phase 2 trial schema for combination treatment with pemetrexed and an anti-PD-L1 therapy (e.g., avelumab).

A further data set has as its system MB49 tumors. The data set is described as follows: Immune cells in MB49 tumors with in vivo pemetrexed treatment. The following applies: FIG. 4B.
Source text: as §3

The test system of data set [7] is PD-L1. Nature of the data set: PD-L1 expression in vivo on MB49 tumors. The following applies: FIG. 4C.
Source text: as §3

For data set [8], the system named is PD-L1. The data set is described as follows: PD-L1 expression on tumor cells with anti-folate agents. The following applies: both in vitro and in vivo. The text has this: Many types of tumors contain homozygous deletion of the methylthioadenosine phosphorylase (MTAP) gene, which encodes an essential enzyme to catalyze methylthioadenosine (MTA) in the salvage pathway for adenosine synthesis.

Take `N#Cc1c(N)nc(SCC(N)=O)c(C#N)c1-c1ccc(OCC2CC2)cc1` [Bay60-6385]: in the data set on mouse CD8 T cells (mouse CD8 T cells activated with anti-CD3/anti-CD28, 72 h, FIGS. 5A & 7A), the “production of INF-γ” value is “mimic this inhibition”. Further, the “production of TNF-α” value in the data set with mouse CD8 T cells (mouse CD8 T cells activated with anti-CD3/anti-CD28, 72 h, FIGS. 5B & 7B) is “mimic this inhibition”.
For the molecule `CSC[C@H]1O[C@@H](n2cnc3c(N)ncnc32)[C@H](O)[C@@H]1O` [MTA, methylthioadenosine], the “cytotoxicity to activated human T cells” value in the data set on activated human T cells is recorded as “cytotoxic”.
Take `CCCn1c(=O)[nH]c2nc(-c3ccc(S(=O)(=O)N4CCN(c5ccc(Cl)cc5)CC4)cc3)[nH]c2c1=O` [PSB-603]: in the data set with mouse CD8 T cells (PSB603+MTA, mouse CD8 T cells, FIG. 7A), the “rescue of MTA-induced inhibition on the production of INF-γ” value is “partially rescue”. Moreover, the “rescue of MTA-induced inhibition on the production of TNF-α” value in the data set with mouse CD8 T cells (PSB603+MTA, mouse CD8 T cells, FIG. 7B) is “partially rescue”.
As for `Nc1nc2[nH]cc(CCc3ccc(C(=O)N[C@@H](CCC(=O)O)C(=O)O)cc3)c2c(=O)[nH]1` [Pemetrexed], the “potency in inducing apoptosis (sub-G1 population), MTAP-deficient vs. MTAP-wild type” value in [1] is reported as “at least 40 fold”. In addition, the “apoptosis with pemetrexed treatment” value in data set [2] is given as “significant apoptosis”. In addition, the tumor growth result in data set [3] was “inhibited”; in the data set with MTAP-wild type tumor it was “not”; in data set [4], “inhibited growth”. Besides, the “response rate, MTAP-deficient vs MTAP-wild type bladder cancer patients” value is given as “higher response rate” in data set [5] (combined retrospective and prospective data, FIG. 2H); “higher response rate” in [5] (prospective data, FIG. 2G); “higher response rate” in data set [5] (retrospective data, FIG. 2F). For the same molecule, the PD-L1 expression entry with PD-L1 [6] is given as “induced PD-L1”. In the data set with MB49 tumors, the “CD4/8 T cells in tumors” value is recorded as “increased”. Further, the MDSCs in tumors entry in the data set on MB49 tumors is reported as “decreased”. Also, the “dendritic cells in tumors” value in the data set on MB49 tumors is “increased”. Moreover, the macrophages in tumors entry in the data set on MB49 tumors is on record as “increased”. Moreover, the “PD-L1 expression in vivo” value with PD-L1 [7] is given as “induced PD-L1”. Also, the “PD-L1 expression on tumor cells” value in the data set with PD-L1 [8] is recorded as “induce PD-L1 expression”.
Take `CN(Cc1cnc2nc(N)nc(N)c2n1)c1ccc(C(=O)N[C@@H](CCC(=O)O)C(=O)O)cc1` [methotrexate, Methotrexate]: the “PD-L1 expression on tumor cells” value with PD-L1 [8] is recorded as “induce PD-L1 expression”.
